# Experimental data as given in the supplement of paper PMC10331698.
# ± gives the standard deviation of the averaged measurements.
# What was measured:
# Experiment in all cases: level (log10 ratio to DMSO vehicle control); higher = higher biomarker level / cell amount than vehicle control
# Conditions in all cases: in DMSO
# [1] = compound: O=S(=O)(O)CCC(F)(F)C(F)(F)C(F)(F)C(F)(F)F [4:2 Fluorotelomer sulfonic acid]
# Protocol: (§1)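 BioMAP Diversity Plus panel of 12 human primary cell co-culture systems (3C, 4H, LPS, SAg, BT, BF4T, BE3C, CASM3C, HDF3CGF, KF3CT, MyoF, Mphg). Compounds were added 1 h before stimulation and left for 24 h (MyoF 48 h; BT 72 h for soluble read-outs or 6 d for IgG). Biomarkers were read by ELISA, cytotoxicity by SRB, PBMC viability and proliferation by Alamar Blue. Each well value was divided by the mean of 8 DMSO control wells on the same plate and log10 transformed; duplicate blinded samples were tested at 4 concentrations.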
# [2] = compound: O=P(O)(O)CCC(F)(F)C(F)(F)C(F)(F)C(F)(F)C(F)(F)C(F)(F)F [2-(Perfluorohexyl)ethylphosphonic acid]
# Protocol: as §1
# [3] = compound: OCC(F)(F)C(F)(F)C(F)(F)C(F)(F)C(F)(F)C(F)(F)F [6:1 Fluorotelomer alcohol]
# Protocol: as §1
# [4] = compound: OCCCCC(F)(F)C(F)(F)C(F)(F)C(F)(F)F [4:4 Fluorotelomer alcohol]
# Protocol: as §1
# [5] = compound: C=CC(=O)OCCC(F)(F)C(F)(F)C(F)(F)C(F)(F)C(F)(F)C(F)(F)C(F)(F)C(F)(F)F [8:2 Fluorotelomer acrylate]
# Protocol: as §1
# [6] = compound: O=C(O)C(F)(F)C(F)(F)C(F)(F)C(F)(F)C(F)(F)C(F)(F)C(F)(F)F [Perfluorooctanoic acid]
# Protocol: as §1
Test System,level (log10) ([1]; 6700 nM),level (log10) ([1]; 20000 nM),level (log10) ([1]; 60000 nM),level (log10) ([2]; 6700 nM),level (log10) ([2]; 20000 nM),level (log10) ([2]; 60000 nM),level (log10) ([3]; 6700 nM),level (log10) ([3]; 20000 nM),level (log10) ([3]; 60000 nM),level (log10) ([4]; 6700 nM),level (log10) ([4]; 20000 nM),level (log10) ([4]; 60000 nM),level (log10) ([5]; 6700 nM),level (log10) ([5]; 20000 nM),level (log10) ([5]; 60000 nM),level (log10) ([6]; 6700 nM),level (log10) ([6]; 20000 nM),level (log10) ([6]; 60000 nM)
BF4T:PAI-I,-0.0055 ± 0.005,-0.007 ± 0.0071,-0.0035 ± 0.015,-0.0075 ± 0.0092,-0.0115 ± 0.0035,-0.016 ± 0.038,-0.001 ± 0.0028,-0.012,0.002 ± 0.021,0.0065 ± 0.0078,0.011 ± 0.0099,0.0125 ± 0.012,-0.0035 ± 0.0064,-0.0055 ± 0.0035,0.007 ± 0.017,0.0005 ± 0.0021,0.0015 ± 0.0021,-0.007 ± 0.0099
BF4T:SRB,-0.012 ± 0.0042,-0.0085 ± 0.0064,-0.0075 ± 0.0064,-0.007 ± 0.0042,-0.011 ± 0.0014,-0.0055 ± 0.016,-0.0045 ± 0.0064,-0.0045 ± 0.013,-0.004 ± 0.023,-0.0105 ± 0.0092,-0.0085 ± 0.0064,-0.002 ± 0.011,-0.004 ± 0.0028,-0.011 ± 0.013,0.0055 ± 0.0092,-0.008 ± 0.0099,0.0015 ± 0.0064,-0.0005 ± 0.013
BF4T:tPA,-0.0295 ± 0.023,-0.0295 ± 0.03,0.0055 ± 0.06,-0.059 ± 0.0014,-0.067 ± 0.0057,-0.0615 ± 0.064,-0.0055 ± 0.016,-0.013 ± 0.021,0.0095 ± 0.029,-0.0095 ± 0.011,-0.01,0.0205 ± 0.036,-0.046 ± 0.013,-0.0635 ± 0.023,-0.0465 ± 0.012,-0.065 ± 0.05,-0.0715 ± 0.03,-0.093 ± 0.031
BF4T:uPA,-0.013 ± 0.02,-0.013 ± 0.0085,0.0105 ± 0.0078,-0.0445 ± 0.037,-0.0475 ± 0.028,-0.0465 ± 0.013,-0.0155 ± 0.0064,-0.011 ± 0.018,-0.023 ± 0.024,-0.0125 ± 0.0078,-0.015 ± 0.0028,0.0105 ± 0.04,-0.0405 ± 0.039,-0.033 ± 0.025,-0.023 ± 0.031,-0.0245 ± 0.023,-0.0315 ± 0.016,-0.0185 ± 0.013
BT:B cell Proliferation,0.0295 ± 0.047,0.042 ± 0.034,0.0225 ± 0.0078,0.031 ± 0.0071,0.0135 ± 0.00071,0.051 ± 0.021,-0.007 ± 0.013,-0.009 ± 0.038,-0.148 ± 0.1,0.0045 ± 0.018,0.005 ± 0.027,-0.0015 ± 0.016,0.0155 ± 0.0021,0.0035 ± 0.00071,-0.0005 ± 0.04,0.0195 ± 0.018,0.027 ± 0.021,0.097 ± 0.0099
BT:PBMC Cytotoxicity,0.0075 ± 0.023,0 ± 0.0014,0.0435 ± 0.03,0.0025 ± 0.053,0.0325 ± 0.021,0.07 ± 0.047,0.017 ± 0.025,0.011 ± 0.037,-0.082 ± 0.03,-0.0265 ± 0.0064,-0.035 ± 0.0014,-0.0195 ± 0.064,0.011 ± 0.018,-0.0035 ± 0.035,-0.021 ± 0.079,-0.001 ± 0.028,0.0565 ± 0.013,0.105 ± 0.033
BT:Secreted IgG,0.006 ± 0.052,0.021 ± 0.061,0.0055 ± 0.054,0.0125 ± 0.0021,0.002 ± 0.0099,-0.046 ± 0.047,0.004 ± 0.042,-0.0005 ± 0.04,-0.161 ± 0.14,0.01 ± 0.024,0.0045 ± 0.021,-0.0055 ± 0.037,-0.0205 ± 0.012,-0.041 ± 0.031,-0.11 ± 0.13,0.0095 ± 0.026,-0.005 ± 0.013,-0.0165 ± 0.0078
BT:sIL-2,-0.009 ± 0.059,-0.044 ± 0.037,0.038 ± 0.02,0.076 ± 0.013,0.023 ± 0.0071,0.0355 ± 0.11,0.0235 ± 0.028,-0.012 ± 0.075,-0.289 ± 0.081,-0.0015 ± 0.044,-0.0135 ± 0.043,-0.017 ± 0.092,0.051 ± 0.0042,-0.061 ± 0.17,-0.036 ± 0.13,0.0385 ± 0.11,0.039 ± 0.093,0.046 ± 0.12
BT:sIL-6,0.047 ± 0.041,-0.0105 ± 0.011,-0.052 ± 0.13,0.0645 ± 0.013,-0.007 ± 0.0042,0.0015 ± 0.025,-0.001 ± 0.025,-0.034 ± 0.073,-0.296 ± 0.036,0.036 ± 0.033,-0.0255 ± 0.005,-0.069 ± 0.09,0.0525 ± 0.019,0.029 ± 0.0028,0.0215 ± 0.039,0.024 ± 0.03,-0.0095 ± 0.035,0.0025 ± 0.0078
BT:sIL-17A,-0.127 ± 0.005,-0.078 ± 0.2,-0.116 ± 0.096,0.018 ± 0.11,-0.07 ± 0.017,-0.135 ± 0.059,-0.063 ± 0.088,-0.107 ± 0.11,-0.475 ± 0.093,0.026 ± 0.12,-0.003 ± 0.0099,-0.111 ± 0.061,0.0205 ± 0.054,0.0765 ± 0.13,-0.141 ± 0.084,0.009 ± 0.048,-0.165 ± 0.11,-0.0845 ± 0.12
BT:sIL-17F,-0.0025 ± 0.0035,-0.009 ± 0.13,0.077 ± 0.021,0.0655 ± 0.084,0.008 ± 0.0014,-0.0175 ± 0.069,0.0105 ± 0.0035,-0.0465 ± 0.025,-0.388 ± 0.029,-0.0645 ± 0.0092,-0.107 ± 0.015,-0.161 ± 0.15,-0.018 ± 0.061,-0.0565 ± 0.022,-0.03 ± 0.014,0.032 ± 0.04,0.0665 ± 0.11,0.095 ± 0.035
BT:sTNF-alpha,0.0815 ± 0.16,-0.063 ± 0.021,0.0095 ± 0.012,0.114 ± 0.04,0.0475 ± 0.018,0.048 ± 0.24,0.0265 ± 0.084,-0.0265 ± 0.033,-0.33 ± 0.0042,-0.0875 ± 0.033,-0.046 ± 0.13,-0.0085 ± 0.17,0.128 ± 0.0057,0.034 ± 0.027,0.159 ± 0.14,0.0755 ± 0.044,0.097 ± 0.047,0.166 ± 0.11
LPS:CCL2/MCP-1,0.0065 ± 0.028,0.005 ± 0.0042,0.037 ± 0.017,-0.016,-0.0075 ± 0.005,-0.0105 ± 0.019,-0.0015 ± 0.029,-0.0045 ± 0.012,0.0045 ± 0.029,-0.006 ± 0.0071,-0.002 ± 0.023,-0.006 ± 0.011,-0.0105 ± 0.0021,-0.014 ± 0.0071,0.015 ± 0.041,-0.0035 ± 0.00071,0.013,0.0525 ± 0.022
LPS:CD40,0.0175 ± 0.079,0.0505 ± 0.043,0.032 ± 0.071,0.002 ± 0.062,-0.012 ± 0.018,0.0205 ± 0.028,0.053 ± 0.016,0.048 ± 0.052,0.041 ± 0.0028,-0.0175 ± 0.063,-0.0095 ± 0.028,-0.042 ± 0.027,-0.008 ± 0.017,-0.0285 ± 0.036,-0.031 ± 0.016,0.006 ± 0.025,-0.032 ± 0.057,-0.0815 ± 0.022
